In ChEMBL document CHEMBL1250527, “Chalcone glycosides isolated from aerial parts of Brassica rapa L. 'hidabeni' suppress antigen-stimulated degranulation in rat basophilic leukemia RBL-2H3 cells” (Bioorg Med Chem, 2010):
Activity calls are given as the source filed them. No cut-off for these calls is given here.

What was measured:
RBL-2H3 [1] = assay: Antiallergic activity against antigen-IgE-mediated degranulation in rat RBL2H3 cells assessed as inhibition of DNP-BSA-induced intracellular pathway at 50 uM after 30 mins; format: functional, cell-based
RBL-2H3 [2] = assay: Antiallergic activity against antigen-IgE-mediated degranulation in rat RBL2H3 cells assessed as inhibition of DNP-BSA-induced beta-hexosaminidase release at 10 to 100 uM; format: functional, cell-based
RBL-2H3 [3] = assay: Antiallergic activity against antigen-IgE-mediated degranulation in rat RBL2H3 cells assessed as reduction in DNP-BSA-induced intracellular calcium level at 50 uM after 30 mins; format: functional, cell-based
RBL-2H3 [4] = assay: Antiallergic activity against antigen-IgE-mediated degranulation in rat RBL2H3 cells assessed as reduction in DNP-BSA-induced ROS production at 50 uM after 30 mins; format: functional, cell-based
RBL-2H3 [5] = assay: Antioxidant activity […] assessed as DPPH radical scavenging activity; format: functional
RBL-2H3 [6] = assay: Antiallergic activity against antigen-IgE-mediated degranulation in rat RBL2H3 cells assessed as inhibition of translocation of cytosolic subunit of NADPH oxidase by immunofluorescence technique; format: functional, cell-based
RBL-2H3 [7] = assay: Antiallergic activity against antigen-IgE-mediated degranulation in rat RBL2H3 cells assessed as inhibition of translocation of p47phox cytosolic subunit of NADPH oxidase by immunofluorescence technique; format: functional, cell-based
RBL-2H3 [8] = assay: Inhibition of NOX-mediated calcium in rat RBL2H3 cells mobilization assessed as antigen-IgE-mediated degranulation; format: cell-based

In the case of `COc1cc(C(=O)/C=C/c2ccc(O)cc2)ccc1O[C@@H]1O[C@H](CO)[C@@H](O)[C@H](O)[C@H]1O`, the Activity (RBL-2H3 [1]) is reported as “Active”, the Activity (RBL-2H3 [2]) is reported as “Active” and the Activity (RBL-2H3 [3]) is reported as “Active”. The Activity (RBL-2H3 [4]) was “Active”, the Activity (RBL-2H3 [5]) was “inactive” and the Activity (RBL-2H3 [6]) was “Active”. For the same compound, the Activity (RBL-2H3 [7]) was “Active” and the inhibition (RBL-2H3 [8]) was “Active”.
With `COc1ccc(/C=C/C(=O)c2ccc(O[C@@H]3O[C@H](CO)[C@@H](O)[C@H](O)[C@H]3O)c(OC)c2)cc1` the Activity (RBL-2H3 [1]) was “Active”, the Activity (RBL-2H3 [2]) was “Active” and the Activity (RBL-2H3 [3]) was “Active”. For the same compound, the Activity (RBL-2H3 [4]) was “Active”, the Activity (RBL-2H3 [5]) was “inactive” and the Activity (RBL-2H3 [6]) was “Active”. For the same compound, the Activity (RBL-2H3 [7]) was “Active” and the inhibition (RBL-2H3 [8]) was “Active”.
